From article PMC11257039, “VCP activator reverses nuclear proteostasis defects and enhances TDP-43 aggregate clearance in multisystem proteinopathy models” (The Journal of Clinical Investigation, 2024)
“And” between values parts separate entries of the source, which are not always exact repeats. Equal values may be shown once.

Assays:
[1] = test system: WT HeLa cells expressing TDP-4FL; assay: Immunofluorescence of TDP-4FL inclusion morphology, WT HeLa; assay type: cell-based; conditions: for TDP-4FL inclusion size and morphology upon proteasome inhibition: 4 μM MG132, 1 μM ixazomib or 1 μM epoxomicin, 3 or 6 hours
Protocol: HeLa Cells were plated onto glass coverslips and transfected with TDP-4FL using Fugene HD for 24 hours. Cells were fixed with 4% paraformaldehyde (Electron Microscopy Sciences), permeabilized with 0.1% Triton-X (Thermo Fisher Scientific), and blocked with 2% FBS DPBS. Primary antibodies were diluted in 2% FBS DPBS. Cells were stained with 300 nM DAPI, and coverslips were mounted onto glass slides using ProLong Glass Antifade Mountant (Thermo Fisher Scientific). Confocal images were obtained using a Leica TCS SPE laser scanning confocal microscope.
(A) High power magnification immunofluorescence confocal images of HeLa cells expressing TDP-4FL stained for myc-TDP (green) Scale bar, 5 µm. […]
(C) Representative confocal microscopy immunofluorescence confocal images of HeLa cells […]
yellow represent cells that were categorized as anisosome morphology. Nuclei outline in white represent cells that were categorized as aggregate morphology. Cells with approximately more than 50% anisosome inclusions were categorized as anisosome morphology whereas cells with approximately more than 50% aggregate-like inclusions were categorized as aggregate morphology. Binucleate cells were excluded from the total counts. Scale bar, 10 µm.
(§1) (1 picture or pasted object on this page, not shown here)

luciferase = assay: Luciferase counter assay: Kinase-Glo with 62.5 μM ATP without recombinant VCP; assay type: biochemical; conditions: for measured ATP consumed (nmol) without VCP: replicate values
Protocol: (§2) Experiments with varied activator concentration and screening were measured using the Kinase-Glo Luminescent Kinase Assay (Promega). Reactions were incubated at 25°C for 1 hour then reduced to 4°C in a thermocycler consisting of 50 nM of recombinant VCP with or without 50 nM UFD1/NPLOC4 in 50 uL ATPase buffer (25 mM HEPES, pH 7.5, 100 mM NaCl, 10 mM MgCl2) at 2% DMSO with 62.5 μM ATP and a range of activator concentrations (Gibco, Sigma-Aldrich). Equal volumes of reaction and Kinase-Glo reagent were incubated for 20 minutes at room temperature in a 96 well white flat bottom plate (Corning). Luminescence was measured in a microplate reader (Spark 20M, Tecan).
(A-D) Measured ATP as determined by a Kinase-Glo assay of 62.5μM ATP in the presence of increasing concentrations of compound without recombinant VCP present. (for all panels: n=3 with 4 technical replicates per experiment, points are expressed as beta ± SE, linear mixed effects model, P>0.05 for each […]
as §1

recombinant WT VCP [2] = target: T1, recombinant WT VCP (Mus musculus, UniProt Q01853); assay: MESG-PNP (EnzCheck) phosphate release ATPase assay, WT VCP; assay type: biochemical; conditions: for ATPase activity v0/ET: 25 μM compound, replicate experiments
T1 construct: in the full-length recombinant VCP; His (N); made in house; host or cells: Escherichia coli BL21-CodonPlus (DE3)-RIL
T1 sequence (Q01853 whole entry): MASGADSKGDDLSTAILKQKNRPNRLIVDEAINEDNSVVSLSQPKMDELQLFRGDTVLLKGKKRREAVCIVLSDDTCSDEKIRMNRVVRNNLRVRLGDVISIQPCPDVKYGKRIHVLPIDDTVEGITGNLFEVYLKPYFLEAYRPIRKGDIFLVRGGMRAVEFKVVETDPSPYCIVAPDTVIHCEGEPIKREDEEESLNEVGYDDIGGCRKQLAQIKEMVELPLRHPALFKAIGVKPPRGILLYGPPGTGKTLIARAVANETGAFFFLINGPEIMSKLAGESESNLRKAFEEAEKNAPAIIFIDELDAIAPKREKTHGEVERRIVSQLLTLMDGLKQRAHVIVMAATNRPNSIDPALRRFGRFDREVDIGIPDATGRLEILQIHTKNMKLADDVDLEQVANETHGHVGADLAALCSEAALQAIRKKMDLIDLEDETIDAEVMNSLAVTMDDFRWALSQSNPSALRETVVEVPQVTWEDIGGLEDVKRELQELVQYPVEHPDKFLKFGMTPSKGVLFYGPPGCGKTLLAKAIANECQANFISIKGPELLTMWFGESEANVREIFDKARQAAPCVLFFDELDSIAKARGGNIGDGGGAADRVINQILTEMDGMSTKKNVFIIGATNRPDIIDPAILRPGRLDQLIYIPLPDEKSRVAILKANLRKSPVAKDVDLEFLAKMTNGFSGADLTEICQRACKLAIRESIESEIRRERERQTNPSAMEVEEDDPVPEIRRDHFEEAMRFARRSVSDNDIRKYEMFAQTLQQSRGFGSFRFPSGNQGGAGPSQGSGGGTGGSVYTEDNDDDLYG
Protocol: (§3) All other experiments were performed using the EnzCheck phosphatase assay kit (Molecular Probes). ATPase activity was measured in a 96-well flat bottom plate (Thermo Fisher Scientific). 50 nM VCP was incubated in 100 μL ATPase buffer with 2% DMSO with 25 μM compound and various ATP concentrations. The absorbance at 360 ± 5 nm was measured for more than 15 minutes at 25°C. Phosphate release was quantified based on a phosphate standard curve performed on the same plate. Initial enzyme velocity was determined by fitting the linear portion of the data to a linear regression model.
(§4) Experiments with varied compound concentration were fit to a 3-parameter dose curve with asymmetric profile likelihood 95% confidence intervals in GraphPad Prism 9 (GraphPad). Experiments with varied ATP concentration were fit to a Michaelis-Menten model with asymmetric profile likelihood 95% confidence intervals. Significance was determined for experiments with fixed compound or fixed ATP concentration using a linear mixed-effects model.

recombinant WT VCP [3] = target: T1, recombinant WT VCP; assay: Kinase-Glo ATPase assay, recombinant WT VCP; assay type: biochemical; conditions: for ATP consumed: WT VCP no UN
Protocol: as §2, §4

A232E VCP = target: T2, A232E VCP (Mus musculus, UniProt Q01853, A232E); assay: MESG-PNP ATPase assay, recombinant A232E VCP; assay type: biochemical; conditions: VCP Mutation A232E; replicate values
T2 construct: in the full-length recombinant VCP; His (N); made in house; host or cells: Escherichia coli BL21-CodonPlus (DE3)-RIL
T2 sequence (Q01853 whole entry A232E): as the sequence (Q01853 whole entry) above, with A232E counted along it
Protocol: as §3
(§5) Figure S8. VCP activators variable effect on ATPase activity of MSP associated mutations in recombinant VCP. ATPase activity of 50 nM recombinant VCP protein was measured using an MESG-PNP assay upon treatment with 25 μM compound versus 2% DMSO control at 1mM ATP for WT (also shown in Fig. 5c), A232E, R155H, and R159H (n=3 with 3 technical replicated per experiment; points are expressed as beta ± SE, linear effects model: *P<0.05,**P<0.01; ***P<0.001; ****P<0.0001).

R155H VCP = target: T3, R155H VCP (Mus musculus, UniProt Q01853, R155H); assay: MESG-PNP ATPase assay, recombinant R155H VCP; assay type: biochemical; conditions: VCP Mutation R155H; replicate values
T3 construct: in the full-length recombinant VCP; His (N); made in house; host or cells: Escherichia coli BL21-CodonPlus (DE3)-RIL
T3 sequence (Q01853 whole entry R155H): as the sequence (Q01853 whole entry) above, with R155H counted along it
Protocol: as §3, §5

[4] = test system: WT HeLa cells expressing GFP-TDP-4FL; assay: Flow cytometry of GFP-TDP-4FL integrated fluorescence, WT HeLa; assay type: cell-based; conditions: for Integrated Fluorescence WT (Normalized to CHX): replicate values
Protocol: Drug treatments were performed on neurons 7 days after lentiviral transduction and 14 days after neuronal induction. HeLa cells were collected using trypsin and pelleted at 1000g for 3 minutes. Cell pellets were resuspended in colorless DMEM (Invitrogen) supplemented with 2% FBS and filtered through a BD tube with cell strainer (BD Biosciences) for flow cytometry analysis on LSR II (BD Biosciences). Data analysis was performed on FlowJo v10 software. Integrated fluorescence intensity was determined by multiplying percent positive GFP and GFP median fluorescence values.

R159H VCP = target: T4, R159H VCP (Mus musculus, UniProt Q01853, R159H); assay: MESG-PNP ATPase assay, recombinant R159H VCP; assay type: biochemical; conditions: VCP Mutation R159H; replicate values
T4 construct: in the full-length recombinant VCP; His (N); made in house; host or cells: Escherichia coli BL21-CodonPlus (DE3)-RIL
T4 sequence (Q01853 whole entry R159H): as the sequence (Q01853 whole entry) above, with R159H counted along it
Protocol: as §3, §5

WT VCP + Ufd1/Nploc4 = target: T5, WT VCP + Ufd1/Nploc4 (Mus musculus, UniProt Q01853); assay: Kinase-Glo ATPase assay, WT VCP with UFD1/NPLOC4 (UN); assay type: biochemical; conditions: for ATP consumed: WT VCP with UN
T5 construct: in the full-length recombinant VCP; His (N); made in house; host or cells: E. coli (VCP: BL21-CodonPlus (DE3)-RIL; UFD1 and NPLOC4: E. coli (DE3), purified by the MD Anderson core)
T5 sequence (Q01853 whole entry): as the sequence (Q01853 whole entry) above
T5 sequence (Q92890 whole entry partner): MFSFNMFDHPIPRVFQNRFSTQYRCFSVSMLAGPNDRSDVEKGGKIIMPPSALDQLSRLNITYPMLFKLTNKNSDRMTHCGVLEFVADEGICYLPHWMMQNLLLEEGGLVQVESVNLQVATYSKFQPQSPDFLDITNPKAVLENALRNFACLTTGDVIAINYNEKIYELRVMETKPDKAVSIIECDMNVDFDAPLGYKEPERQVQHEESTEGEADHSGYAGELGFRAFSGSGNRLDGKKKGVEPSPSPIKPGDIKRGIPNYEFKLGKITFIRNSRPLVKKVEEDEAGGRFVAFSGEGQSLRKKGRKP
T5 sequence (Q8TAT6 whole entry partner): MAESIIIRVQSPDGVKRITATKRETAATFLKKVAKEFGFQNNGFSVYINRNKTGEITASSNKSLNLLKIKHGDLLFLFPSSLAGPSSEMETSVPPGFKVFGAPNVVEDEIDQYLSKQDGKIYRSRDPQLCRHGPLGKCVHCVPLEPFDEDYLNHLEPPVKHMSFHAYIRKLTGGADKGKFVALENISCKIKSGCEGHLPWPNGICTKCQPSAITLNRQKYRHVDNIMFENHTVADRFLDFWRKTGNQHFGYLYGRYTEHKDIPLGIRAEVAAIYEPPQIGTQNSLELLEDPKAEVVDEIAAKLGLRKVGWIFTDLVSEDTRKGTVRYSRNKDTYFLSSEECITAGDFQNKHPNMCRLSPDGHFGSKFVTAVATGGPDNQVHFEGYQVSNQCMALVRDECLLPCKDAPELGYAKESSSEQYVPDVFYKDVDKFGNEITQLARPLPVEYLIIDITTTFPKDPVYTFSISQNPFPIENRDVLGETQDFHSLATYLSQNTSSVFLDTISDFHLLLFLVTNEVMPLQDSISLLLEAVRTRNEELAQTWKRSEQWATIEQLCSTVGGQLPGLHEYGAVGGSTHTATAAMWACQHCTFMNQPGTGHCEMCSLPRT
Protocol: as §2, §4

CC(C)C[C@H](NC(=O)CNC(=O)c1cc(Cl)ccc1Cl)B(O)O [ixazomib]
TDP-4FL inclusion size and morphology upon proteasome inhibition [1]: generating larger TDP-4FL inclusions

CC[C@H](C)[C@H](NC(=O)[C@H]([C@@H](C)CC)N(C)C(C)=O)C(=O)N[C@H](C(=O)N[C@@H](CC(C)C)C(=O)[C@@]1(C)CO1)[C@@H](C)O [epoxomicin]
TDP-4FL inclusion size and morphology upon proteasome inhibition [1]: generating larger TDP-4FL inclusions

Clc1ccc2[nH]c3c(N4CCC5(CC4)OCCO5)ncnc3c2c1 [UP158]
luciferase activity (measured ATP without VCP) (luciferase; 62.5 μM ATP, increasing concentrations of compound): did not inhibit luciferase activity
measured ATP consumed (nmol) without VCP (luciferase; compound 6.25 μM): 3.401 nmol and 3.236 nmol and 3.539 nmol and 3.366 nmol and 3.357 nmol and 3.469 nmol and 3.543 nmol and 3.577 nmol and 3.421 nmol and 3.118 nmol and 3.388 nmol
measured ATP consumed (nmol) without VCP (luciferase; compound 12.5 μM): 3.307 nmol and 3.430 nmol and 3.284 nmol and 3.618 nmol and 3.378 nmol and 3.515 nmol and 3.417 nmol and 3.480 nmol and 3.503 nmol and 3.589 nmol and 3.525 nmol and 3.323 nmol
measured ATP consumed (nmol) without VCP (luciferase; compound 25 μM): 3.304 nmol and 3.386 nmol and 3.409 nmol and 3.378 nmol and 3.414 nmol and 3.361 nmol and 3.370 nmol and 3.512 nmol and 3.476 nmol and 3.518 nmol and 3.523 nmol and 3.257 nmol
measured ATP consumed (nmol) without VCP (luciferase; compound 50 μM): 3.338 nmol and 3.481 nmol and 3.508 nmol and 3.447 nmol and 3.274 nmol and 3.450 nmol and 3.266 nmol and 3.477 nmol and 3.478 nmol and 3.313 nmol and 3.466 nmol and 3.330 nmol
measured ATP consumed (nmol) without VCP (luciferase; compound 100 μM): 3.162 nmol and 3.374 nmol and 3.402 nmol and 3.401 nmol and 3.130 nmol and 3.262 nmol and 3.295 nmol and 3.438 nmol and 3.458 nmol and 3.582 nmol and 3.728 nmol and 3.332 nmol
kcat (nmol Pi / nmol VCP / s) (95% CI) (recombinant WT VCP [2]; 25 μM activator): 0.356 (0.320, 0.396) nmol Pi / nmol VCP / s
increase in kcat (recombinant WT VCP [2]; 25 μM activator, versus DMSO): more than 50%
ATPase activity v0/ET (recombinant WT VCP [2]; [ATP] 62.5 μM): 0.191 nmol Pi / nmol VCP / s and 0.186 nmol Pi / nmol VCP / s and 0.163 nmol Pi / nmol VCP / s
ATPase activity v0/ET (recombinant WT VCP [2]; [ATP] 125 μM): 0.237 nmol Pi / nmol VCP / s and 0.241 nmol Pi / nmol VCP / s and 0.210 nmol Pi / nmol VCP / s
ATPase activity v0/ET (recombinant WT VCP [2]; [ATP] 250 μM): 0.277 nmol Pi / nmol VCP / s and 0.260 nmol Pi / nmol VCP / s and 0.266 nmol Pi / nmol VCP / s
ATPase activity v0/ET (recombinant WT VCP [2]; [ATP] 500 μM): 0.330 nmol Pi / nmol VCP / s and 0.296 nmol Pi / nmol VCP / s and 0.298 nmol Pi / nmol VCP / s
ATPase activity v0/ET (recombinant WT VCP [2]; [ATP] 1000 μM): 0.372 nmol Pi / nmol VCP / s and 0.331 nmol Pi / nmol VCP / s and 0.333 nmol Pi / nmol VCP / s
EC50 (recombinant WT VCP [3]; EC50 (μM) (95% CI), WT VCP without UN, 50 nM VCP, 62.5 μM ATP, 2% DMSO): 2.41 µM
ATP consumed (recombinant WT VCP [3]; 0.78 μM compound): 1.347 nmol and 0.994 nmol and 1.148 nmol
ATP consumed (recombinant WT VCP [3]; 1.56 μM compound): 1.354 nmol and 1.059 nmol and 1.210 nmol
ATP consumed (recombinant WT VCP [3]; 3.13 μM compound): 1.498 nmol and 1.151 nmol and 1.481 nmol
ATP consumed (recombinant WT VCP [3]; 6.25 μM compound): 1.483 nmol and 1.304 nmol and 1.494 nmol
ATP consumed (recombinant WT VCP [3]; 12.5 μM compound): 1.656 nmol and 1.339 nmol and 1.428 nmol
ATP consumed (recombinant WT VCP [3]; 25 μM compound): 1.637 nmol and 1.369 nmol and 1.624 nmol
ATP consumed (recombinant WT VCP [3]; 50 μM compound): 1.715 nmol and 1.360 nmol and 1.703 nmol
ATP consumed (recombinant WT VCP [3]; 100 μM compound): 1.794 nmol and 1.361 nmol and 1.605 nmol
recombinant WT VCP ATPase activity (recombinant WT VCP [3]; in vitro validation of 106 screen hits): significantly increased
increase of VCP activity (recombinant WT VCP [3]; maximum, WT VCP without UN): 50%
ATPase activity, nmol Pi / nmol VCP / s (A232E VCP): 1.493 nmol Pi / nmol VCP / s and 1.756 nmol Pi / nmol VCP / s and 2.037 nmol Pi / nmol VCP / s
ATPase activity, nmol Pi / nmol VCP / s (R155H VCP): 1.189 nmol Pi / nmol VCP / s and 1.361 nmol Pi / nmol VCP / s and 1.473 nmol Pi / nmol VCP / s
Integrated Fluorescence WT (Normalized to CHX) ([4]; 5μM compound with CHX): 0.937 and 0.971 and 1.133 and 0.982 and 1.082 and 0.863
Integrated Fluorescence WT (Normalized to CHX) ([4]; 20μM compound with CHX): 1.023 and 1.038 and 1.143 and 1.051 and 0.869 and 0.804
clearance of GFP-TDP-4FL aggregates (integrated fluorescence) ([4]; MG132, then CHX with 5 or 20 μM activator): did not have a significant effect
ATPase activity, nmol Pi / nmol VCP / s (R159H VCP): 1.332 nmol Pi / nmol VCP / s and 1.432 nmol Pi / nmol VCP / s and 1.240 nmol Pi / nmol VCP / s
change in EC50 with UN compared to without UN (WT VCP + Ufd1/Nploc4): significantly increased
change in maximum percent activity with UN compared to without UN (WT VCP + Ufd1/Nploc4): stayed the same
EC50 (WT VCP + Ufd1/Nploc4; WT VCP + Ufd1/Nploc4, 1:1 molar ratio): 14.3 µM
ATP consumed (WT VCP + Ufd1/Nploc4; 1.56 μM compound): 1.283 nmol and 1.271 nmol and 1.261 nmol
ATP consumed (WT VCP + Ufd1/Nploc4; 3.13 μM compound): 1.368 nmol and 1.194 nmol and 1.381 nmol
ATP consumed (WT VCP + Ufd1/Nploc4; 6.25 μM compound): 1.593 nmol and 1.386 nmol and 1.366 nmol
ATP consumed (WT VCP + Ufd1/Nploc4; 12.5 μM compound): 1.674 nmol and 1.527 nmol and 1.645 nmol
ATP consumed (WT VCP + Ufd1/Nploc4; 25 μM compound): 1.721 nmol and 1.705 nmol and 1.784 nmol
ATP consumed (WT VCP + Ufd1/Nploc4; 50 μM compound): 1.865 nmol and 1.744 nmol and 1.853 nmol
ATP consumed (WT VCP + Ufd1/Nploc4; 100 μM compound): 1.867 nmol and 1.844 nmol and 1.895 nmol

Cc1cc2c(C(N)=O)cccc2n1-c1nc2c(c(NCc3ccccc3)n1)COCC2 [CB5083]
TDP-4FL aggregate formation [1]: no effect on TDP-4FL aggregate formation
TDP-4FL inclusion morphology after recovery [1]: residual irregularly shaped intranuclear TDP-4FL aggregates
